Source: patent publication US11179412B2, “Methods of treating conditions involving elevated inflammatory response” (University of Pittsburgh—Of the Commonwealth System of …, priority 2017, dated 2021)
Structures can show the parent of a compound that is named as a salt.

Tested on: STING activation (IFNβ release) in iBMDMs
Assay: IFNβ release ELISA after STING ligand (or LPS) stimulation, iBMDMs
Format: cell-based, mouse
Details: iBMDMs; 3′3′-cGAMP 10 μg/ml, 16 hours; compound 10 μM
Excerpt: Commercially available enzyme-linked immunosorbent assay (ELISA) kits were used to measure the concentrations of mouse IFNβ (Thermo Fisher Scientific) or human IFNβ (Thermo Fisher Scientific) in culture medium according to the manufacturer's instructions. […]

Going from `CCOC(=O)NCCCC(=O)NCCc1ccccc1` [Santacruzamate A (CAY10683), Santacruzamate A] to `CC1(C)CCC(CN2CCN(c3ccc(C(=O)NS(=O)(=O)c4ccc(NCC5CCOCC5)c([N+](=O)[O-])c4)c(Oc4cnc5[nH]ccc5c4)c3)CC2)=C(c2ccc(Cl)cc2)C1` [ABT-199 (GDC-0199)], the “fold increase in IFN-β release” value rises from 1.18 fold to 1.78 fold.

First: c1ccc(CNc2nc(NCc3ccccc3)c3ccccc3n2)cc1 [DBeQ]
Second: O=C(NC(NC(=S)Nc1ccc(F)c([N+](=O)[O-])c1)C(Cl)(Cl)Cl)C(c1ccccc1)c1ccccc1 (stereo not drawn) [CGK 733]
The “fold increase in IFN-β release” value of the first is lower: 2.18 fold for the first, 2.50 fold for the second.

Compared with `COc1cc(OC)c(NC(=O)Nc2cc(C)on2)cc1Cl` [PNU-120596], `COCCCC/C(=N\OCCN)c1ccc(C(F)(F)F)cc1` [Fluvoxamine maleate] is higher in “fold increase in IFN-β release” value: 0.12 fold for the first, 1.80 fold for the second.

Going from `COC(=O)CCSCc1ccc(-c2onc(C)c2NC(=O)OC(C)c2ccccc2Cl)cc1` (stereo not drawn) [Ki16198] to `Nc1cccc2c1CN(C1CCC(=O)NC1=O)C2=O` (stereo not drawn) [Lenalidomide (CC-5013), Lenalidomide], the “fold increase in IFN-β release” value rises from 0.51 fold to 1.09 fold.

Going from `Cc1cc2c(C(C)C)c(O)c(O)c(C=O)c2c(O)c1-c1c(C)cc2c(C(C)C)c(O)c(O)c(C=O)c2c1O` [AT101] to `CCOC(=O)C1=C(C)NC(C)=C(C(=O)OC)C1c1cccc(Cl)c1Cl` (stereo not drawn) [Felodipine], the “fold increase in IFN-β release” value rises from 0.13 fold to 0.69 fold.

Compared with `CCN[C@H]1CN(CCCOC)S(=O)(=O)c2sc(S(N)(=O)=O)cc21` [Brinzolamide], `O=C(O)c1cc(I)ccc1NC(=O)[C@H](Cc1ccccc1)NCc1ccccc1` [CW069] is higher in “fold increase in IFN-β release” value: 1.93 fold for the first, 4.03 fold for the second.

First: Cc1ccc(C(=O)N(CCCN)[C@@H](c2nc3cc(Cl)ccc3c(=O)n2Cc2ccccc2)C(C)C)cc1 [Ispinesib (SB-715992), Ispinesib]
Second: CCOc1cc(N2CCC(O)CC2)ccc1Nc1ncc2c(n1)N(C)c1ccccc1C(=O)N2C [XMD8-92]
The “fold increase in IFN-β release” value of the first is lower: 2.12 fold for the first, 2.38 fold for the second.

Compared with `CC(C)c1cc(-c2n[nH]c(=O)n2-c2ccc3c(ccn3C)c2)c(O)cc1O` [Ganetespib (STA-9090), Ganetespib], `O=C(NCC1(c2nc(-c3ccccc3)cs2)CCOCC1)c1cccc(-c2noc(C(F)(F)F)n2)c1` [TMP269] is lower in “fold increase in IFN-β release” value: 1.80 fold for the first, 1.59 fold for the second.

First: COc1cc(OC2CCN(C)CC2)ccc1Nc1ncc2c(n1)n(C1CCCC1)c(=O)n2C [AZ 3146]
Second: CC(C)(C)c1cc(NC(=O)Nc2ccc(-c3cn4c(n3)sc3cc(OCCN5CCOCC5)ccc34)cc2)no1 [Quizartinib (AC220), Quizartinib]
The “fold increase in IFN-β release” value of the first is lower: 0.10 fold for the first, 0.91 fold for the second.

First: C=CCn1c(=O)c2cnc(Nc3ccc(N4CCN(C)CC4)cc3)nc2n1-c1cccc(C(C)(C)O)n1 [MK-1775]
Second: CCNc1nc(Nc2cc(F)c(C(=O)N3CCOCC3)cc2OC)ncc1C(F)(F)F [GNE-7915]
The “fold increase in IFN-β release” value of the first is higher: 4.54 fold for the first, 2.41 fold for the second.

First: Cc1ccc(NC(=O)c2ccc(CN3CCN(C)CC3)cc2)cc1Nc1nccc(-c2cccnc2)n1 [Imatinib (STI571), Imatinib]
Second: CC(C)(C)c1cc(C(C)(C)C)c(NC(=O)c2c[nH]c3ccccc3c2=O)cc1O [Ivacaftor (VX-770), Ivacaftor]
The “fold increase in IFN-β release” value of the first is lower: 1.04 fold for the first, 1.27 fold for the second.

Compared with `O=C(O)C(Cc1ccccc1[N+](=O)[O-])=NNc1nc(-c2ccc(Cl)c(Cl)c2)cs1` (mixture of isomers) [4EGI-1], `CC(C)N(CCCNC(=O)Nc1ccc(C(C)(C)C)cc1)C[C@H]1O[C@@H](n2cc(Br)c3c(N)ncnc32)[C@H](O)[C@@H]1O` [SGC 0946] is lower in “fold increase in IFN-β release” value: 4.14 fold for the first, 1.90 fold for the second.

Going from `O=C(Nc1cc(C(F)(F)F)cc(C(F)(F)F)c1)c1cc(Cl)ccc1O` [IMD 0354] to HSP990 (NVP-HSP990), the “fold increase in IFN-β release” value falls from 0.86 fold to 0.26 fold.

First: CS(=O)(=O)c1cccc(CNc2nc(Nc3ccc4c(c3)CCC(=O)N4)ncc2C(F)(F)F)c1 [PF-573228]
Second: CCc1cc(Nc2nccc(-c3c(-c4ccc(OC)c(C(=O)Nc5c(F)cccc5F)c4)nc4ccccn34)n2)c(OC)cc1N1CCC(N2CCN(S(C)(=O)=O)CC2)CC1 [GSK1904529A]
The “fold increase in IFN-β release” value of the first is lower: 0.87 fold for the first, 1.05 fold for the second.

Going from `CNC(=O)c1cc(Oc2ccc(NC(=O)Nc3cc(C(C)(C)C)nn3-c3ccc4ncccc4c3)c(F)c2)ccn1` [DCC-2036 (Rebastinib), Rebastinib] to `CC[C@H](C)C(=O)O[C@H]1C[C@@H](C)C=C2C=C[C@H](C)[C@H](CC[C@@H]3C[C@@H](O)CC(=O)O3)[C@H]21` [Lovastatin], the “fold increase in IFN-β release” value falls from 1.71 fold to 1.22 fold.

Compared with `CN(C)CCc1c[nH]c2ccc(Cn3cncn3)cc12` [Rizatriptan Benzoate], `O=C(Nc1cccc(Nc2ncc(Br)c(NCCc3cnc[nH]3)n2)c1)N1CCCC1` [BX-912] is lower in “fold increase in IFN-β release” value: 2.85 fold for the first, 1.86 fold for the second.

Compared with `CN1CCCCC1Cn1cc(C(=O)c2cc([N+](=O)[O-])ccc2I)c2ccccc21` (stereo not drawn) [AM1241], `Cn1cnc2c(F)c(Nc3ccc(Br)cc3Cl)c(C(=O)NOCCO)cc21` [Selumetinib (AZD6244), Selumetinib] is lower in “fold increase in IFN-β release” value: 8.07 fold for the first, 0.50 fold for the second.

Compared with `N#CSc1cc(SC#N)c(N)nc1N` [PR-619], (−)-Parthenolide is lower in “fold increase in IFN-β release” value: 0.79 fold for the first, 0.16 fold for the second.

Going from `Cl.O=C(O)Cc1cccc(OCCCN(Cc2cccc(C(F)(F)F)c2Cl)CC(c2ccccc2)c2ccccc2)c1` [GW3965 HCl] to `C[C@@H]1C(=O)O[C@H]2C[C@@]34[C@H]5C[C@@H](C(C)(C)C)[C@]36[C@@H](OC(=O)[C@@H]6O)O[C@@]4(C(=O)O5)[C@]21O` [Ginkgolide A], the “fold increase in IFN-β release” value rises from 0.74 fold to 2.14 fold.

Going from SN-38 to `N#Cc1c(O)c2c(-c3ccc(-c4ccccc4O)cc3)csc2[nH]c1=O` [A-769662], the “fold increase in IFN-β release” value rises from 1.72 fold to 2.13 fold.

First: C=CC(=O)Nc1cccc(Nc2nc(Nc3ccc(NC4CN(CCF)C4)cc3OC)ncc2C(F)(F)F)c1 [CNX-2006]
Second: Oc1nc(-c2ccc(C(F)(F)F)cc2)nc2c1CSCC2 [XAV-939]
The “fold increase in IFN-β release” value of the first is higher: 1.93 fold for the first, 1.00 fold for the second.

First: CC(C)(C)c1cnc(CSc2cnc(NC(=O)C3CCNCC3)s2)o1 [SNS-032 (BMS-387032)]
Second: CCc1nc(N)nc(N)c1-c1ccc(Cl)cc1 [Pyrimethamine]
The “fold increase in IFN-β release” value of the first is lower: 1.01 fold for the first, 5.22 fold for the second.

First: CO[C@H]1C[C@@H]2CC[C@@H](C)[C@@](O)(O2)C(=O)C(=O)N2CCCC[C@H]2C(=O)O[C@H]([C@H](C)C[C@@H]2CC[C@@H](OCCO)[C@H](OC)C2)CC(=O)[C@H](C)/C=C(\C)[C@@H](O)[C@@H](OC)C(=O)[C@H](C)C[C@H](C)/C=C/C=C/C=C/1C [Everolimus (RAD001), Everolimus]
Second: O=C(NCCO)c1cccc(-c2cc(Nc3ccc(OC(F)(F)F)cc3)ncn2)c1 [GNF-5]
The “fold increase in IFN-β release” value of the first is lower: 1.01 fold for the first, 2.94 fold for the second.

Compared with `Oc1cc(O)cc(/C=C/c2ccc(O)c(O)c2)c1` [Piceatannol], `Cn1c(=O)cc(N2CCC[C@@H](N)C2)n(Cc2cc(F)ccc2C#N)c1=O` [Trelagliptin] is higher in “fold increase in IFN-β release” value: 0.42 fold for the first, 1.80 fold for the second.

Going from `COc1cc2nc(N3CCN(C(=O)C4COc5ccccc5O4)CC3)nc(N)c2cc1OC` (stereo not drawn) [Doxazosin Mesylate] to `Cc1nn(-c2ccccc2)c(C)c1/C=N/N1CCN(Cc2ccccc2)CC1` [SANT-1], the “fold increase in IFN-β release” value rises from 0.69 fold to 1.49 fold.

Going from `CCOC(=O)[C@H](CCc1ccccc1)N[C@@H](C)C(=O)N1C(=O)N(C)C[C@H]1C(=O)O` [Imidapril HCl] to `CCCCCCCCCCCCCCCCn1cc[n+](Cc2ccccc2)c1C.[I-]` [NH125], the “fold increase in IFN-β release” value falls from 3.20 fold to 0.11 fold.

Compared with `C=CC(=O)Nc1cccc(Oc2nc(Nc3ccc(N4CCN(C)CC4)cc3OC)ncc2Cl)c1` [WZ4002], `O=S(=O)(c1ccccc1)N(CC(F)(F)F)c1ccc(C(O)(C(F)(F)F)C(F)(F)F)cc1` [T0901317] is higher in “fold increase in IFN-β release” value: 1.42 fold for the first, 1.49 fold for the second.

First: N#C[C@@H]1CCCN1C(=O)CNC12CC3CC(CC(O)(C3)C1)C2 [Vildagliptin (LAF-237), Vildagliptin]
Second: Cc1ccc(S(=O)(=O)NC(=O)NN2CC3CCCC3C2)cc1 (stereo not drawn) [Gliclazide]
The “fold increase in IFN-β release” value of the first is lower: 1.04 fold for the first, 1.93 fold for the second.

First: Cl.Cl.NC1(c2ccc(-c3nc4ccn5c(=O)[nH]nc5c4cc3-c3ccccc3)cc2)CCC1 [MK-2206 2HCl]
Second: O=C(NC[C@H]1CN(c2ccc(N3CCOCC3=O)cc2)C(=O)O1)c1ccc(Cl)s1 [Rivaroxaban]
The “fold increase in IFN-β release” value of the first is higher: 1.02 fold for the first, 0.54 fold for the second.

First: COc1ccc2cc(-c3nc(-c4ccc([S+](C)[O-])cc4)[nH]c3-c3ccncc3)ccc2c1 (stereo not drawn) [Tie2 kinase inhibitor]
Second: COc1cc(F)c(C(C)C)cc1-c1ccc(C(F)(F)F)cc1CN1C(=O)O[C@H](c2cc(C(F)(F)F)cc(C(F)(F)F)c2)[C@@H]1C [Anacetrapib (MK-0859), Anacetrapib]
The “fold increase in IFN-β release” value of the first is lower: 2.04 fold for the first, 2.12 fold for the second.

Going from `Cc1cc(Nc2cc(CN3CCOCC3)c3nc(C)c(Cc4ccc(Cl)cc4F)n3n2)n[nH]1` [LY2784544] to `CCC(=O)Nc1cccc(Oc2nc(Nc3ccc(N4CCN(C)CC4)cc3OC)ncc2Cl)c1` [WZ4003], the “fold increase in IFN-β release” value falls from 2.09 fold to 0.12 fold.

Going from `CCO[C@@H]1OC(=O)C[C@@H]1NC(=O)[C@@H]1CCCN1C(=O)[C@@H](NC(=O)c1ccc(N)c(Cl)c1)C(C)(C)C` [VX-765] to `C/C(=N\NC(=S)N1CCC1)c1ccccn1` [NSC 319726], the “fold increase in IFN-β release” value rises from 1.67 fold to 2.43 fold.

With `C=CCNC1=C2C[C@@H](C)C[C@H](OC)[C@H](O)[C@@H](C)/C=C(\C)[C@H](OC(N)=O)[C@@H](OC)/C=C\C=C(/C)C(=O)NC(=CC1=O)C2=O` [17-AAG (Tanespimycin), Tanespimycin] the “fold increase in IFN-β release” value was 1.53 fold.

For `CN1CCCCC1Cn1cc(C(=O)c2cc([N+](=O)[O-])ccc2I)c2ccccc21` (stereo not drawn) [AM1241], the “3′3′-cGAMP-induced IFNβ release” value was “promoted”.
